Source: paper PMC4182301, “Design, synthesis and SAR exploration of tri-substituted 1,2,4-triazoles as inhibitors of the annexin A2–S100A10 protein interaction” (Bioorganic & Medicinal Chemistry, 2014)
“Also recorded” adds a separate entry of the source. Like-named read-outs stand apart in the source and are kept apart here.

Tests used:
[1] = target: T1, native complex between annexin A2 and S100A10 (Homo sapiens, UniProt P60903); test: Co-immunoprecipitation of AnxA2 with S100A10 (native complex) from cell lysates, Western blot; assay type: binding; conditions: MDA-MB-231 cell lysates preincubated with compound or peptide; compared with vehicle
T1 construct: the native complex of the two full-length proteins, AnxA2 and S100A10; endogenous in cells; host or cells: MDA-MB-231 human breast cancer cells (lysate)
Procedure: In the presence of the isolated synthetic peptide AnxA2(1–14), the amount of AnxA2 in the S100A10 immunoprecipitate is reduced, due to it competing with the binding between native AnxA2 and S100A10.
Figure 5 Co-immunoprecipitation of AnxA2 with S100A10. S100A10 was immunoprecipitated from cell lysates and co-immunoprecipitation of AnxA2 was assessed by Western blotting. The amount of AnxA2 in the S100A10 immunoprecipitate was quantified using Scion Image Software and expressed as a percentage of the vehicle-treated sample (n = 4 ± SE).
Human MDA-MB-231 breast cancer cells were extracted in 50 mM Tris–HCl (pH 8.0) buffer containing 150 mM sodium chloride and 1% (v/v) NP-40. Lysates were centrifuged at 17,000×g and incubated at 4 °C for 16 h with 10 μL S100A10 antibody (BD transduction Laboratories) and 50 μL protein A/G agarose (Alpha Diagnostic International Inc). […] The supernatant was then analyzed by SDS–PAGE after which the gel was transferred to a nitrocellulose filter. […]

[2] = target: interaction between the AnxA2 N-terminus and S100A10 (Homo sapiens, UniProt P60903); test: Fluorescence screening assay (FRET competitive binding, Cy3-AnxA2(Ac1–14) peptide / Cy5-S100A10); conditions: for pIC50 ± SE / IC50: FRET assay, 12 observations; for IC50: read-out: IC50; for fold increase in potency compared to initial hit compound 1a: relative to 1a; for inhibitory activity (in words): truncation of 35 to 5-methyl derivative, and its side chain extension; for fold loss of activity on truncation of the 4,6-dimethylpyrimidin-2-ylsulfanyl side chain to methyl: relative to parent compound (64 vs 36, 65 vs 46, 66 vs 47)
Procedure: Assessment of compound activity was performed as described.[35] Briefly, a Cy5-labelled S100A10 tracer was developed and binding of a Cy3-labelled AnxA2(Ac1–14) peptide ligand was assessed using a fluorescence resonance energy transfer readout. Assays were carried out in Nunc black non-treated 384-well plates at 20 °C in 50 μL buffer C. All incubations were performed in quadruplicate. Compounds, peptide and buffer controls were added to the wells in a 10 μL volume in 5% DMSO. Cy5-labelled S100A10 tracer (407 nM) and Cy3-labelled AnxA2(Ac1–14) peptide ligand (1.33 μM) were pre-incubated for 5 min at 20 °C and 40 μL of the preformed complex was then added to the wells and mixed for 10 s to yield a final DMSO concentration of 1%. After 5 min incubation at 20 °C, readings were taken on a Perkin Elmer Envision plate reader by excitation at 488 nm and emission at 695 nm. Fluorescence resonance energy transfer (FRET) was calculated by subtracting the sum of the fluorescence emission of S100A10-Cy5 and AA2(1–14)-Cy3 individually from that measured for the co-incubated partners. Compound binding was calculated as percentage of non-treated control and data were analysed by non-linear regression (dose response—variable slope with bottom and top parameters fixed at 0% and 100%, respectively) using Graphpad Prism Software to determine the IC50 of binding (primary assay).

interaction between the AnxA2 N-terminus and S100A10, sequence (P60903 whole entry, species assumed, the tested form may be a part): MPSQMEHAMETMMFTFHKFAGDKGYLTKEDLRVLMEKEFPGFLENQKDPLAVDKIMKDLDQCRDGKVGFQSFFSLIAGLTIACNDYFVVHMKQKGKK
T1 sequence (P60903 whole entry, one chain of several): as the sequence (P60903 whole entry, species assumed, the tested form may be a part) above

SMILES	pIC50 ± SE ([2]; Table 2)	IC50 ([2]; Table 2)	also measured
Cc1cc(C)nc(SCc2nnc(SCC(=O)Nc3ccc(C(C)C)cc3)n2Cc2ccco2)n1 [Compound 36, 2-[5-(4,6-Dimethyl-pyrimidin-2-ylsulfanylmethyl)-4-furan-2-ylmethyl-4H-[1,2,4]triazol-3-ylsulfanyl]-N-(4-isopropyl-phenyl)-acetamide]	–	–	amount of AnxA2 in the S100A10 immunoprecipitate [1]: disrupt the native complex; also recorded: reduced; pIC50 ± SE ([2]; Table 1): 5.35 ± 0.04; IC50 ([2]; Table 1): 4 µM; fold increase in potency compared to initial hit compound 1a [2]: ~10 fold
C=CCn1c(CSc2nc(C)cc(C)n2)nnc1SCC(=O)Nc1ccc(C(C)C)cc1 [Compound 46, 2-[4-Allyl-5-(4,6-dimethyl-pyrimidin-2-ylsulfanylmethyl)-4H-[1,2,4]triazol-3-ylsulfanyl]-N-(4-isopropyl-phenyl)-acetamide]	5.01 ± 0.03	10 µM	–
COCCCn1c(CSc2nc(C)cc(C)n2)nnc1SCC(=O)Nc1ccc(C(C)C)cc1 [Compound 47, 2-[5-(4,6-Dimethyl-pyrimidin-2-ylsulfanylmethyl)-4-(3-methoxy-propyl)-4H-[1,2,4]triazol-3-ylsulfanyl]-N-(4-isopropyl-phenyl)-acetamide]	5.13 ± 0.04	7 µM	–
COc1ccc(-n2c(CSc3nc(C)cc(C)n3)nnc2SCC(=O)Nc2ccc(C(C)C)cc2)cc1 [Compound 48, 2-[5-(4,6-Dimethyl-pyrimidin-2-ylsulfanylmethyl)-4-(4-methoxy-phenyl)-4H-[1,2,4]triazol-3-ylsulfanyl]-N-(4-isopropyl-phenyl)-acetamide]	4.82 ± 0.02	15 µM	–
Cc1cc(C)nc(SCc2nnc(SCC(=O)Nc3ccc(C(C)C)cc3)n2-c2ccc(Cl)cc2)n1 [Compound 49, 2-[4-(4-Chloro-phenyl)-5-(4,6-dimethyl-pyrimidin-2-ylsulfanylmethyl)-4H-[1,2,4]triazol-3-ylsulfanyl]-N-(4-isopropyl-phenyl)-acetamide]	4.58 ± 0.04	27 µM	–
C=CCn1c(CSc2nc(C)cc(C)n2)nnc1SCC(=O)Nc1ccc(C(F)(F)F)cc1 [Compound 50, 2-[4-Allyl-5-(4,6-dimethyl-pyrimidin-2-ylsulfanylmethyl)-4H-[1,2,4]triazol-3-ylsulfanyl]-N-(4-trifluoromethyl-phenyl)-acetamide]	5.08 ± 0.04	8 µM	–
COCCCn1c(CSc2nc(C)cc(C)n2)nnc1SCC(=O)Nc1ccc(C(F)(F)F)cc1 [Compound 51, 2-[5-(4,6-Dimethyl-pyrimidin-2-ylsulfanylmethyl)-4-(3-methoxy-propyl)-4H-[1,2,4]triazol-3-ylsulfanyl]-N-(4-trifluoromethyl-phenyl)-acetamide]	5.02 ± 0.04	10 µM	–
COc1ccc(-n2c(CSc3nc(C)cc(C)n3)nnc2SCC(=O)Nc2ccc(C(F)(F)F)cc2)cc1 [Compound 52, 2-[5-(4,6-Dimethyl-pyrimidin-2-ylsulfanylmethyl)-4-(4-methoxy-phenyl)-4H-[1,2,4]triazol-3-ylsulfanyl]-N-(4-trifluoromethyl-phenyl)-acetamide]	5.35 ± 0.04	4 µM	fold increase in potency compared to initial hit compound 1a [2]: 10 fold
Cc1cc(C)nc(SCc2nnc(SCC(=O)Nc3ccc(C(F)(F)F)cc3)n2-c2ccc(Cl)cc2)n1 [Compound 53, 2-[4-(4-Chloro-phenyl)-5-(4,6-dimethyl-pyrimidin-2-ylsulfanylmethyl)-4H-[1,2,4]triazol-3-ylsulfanyl]-N-(4-trifluoromethyl-phenyl)-acetamide]	5.07 ± 0.03	8 µM	–
COc1ccc(-n2c(CSc3nc(C)cc(C)n3)nnc2SCC(=O)Nc2cc(C(F)(F)F)cc(C(F)(F)F)c2)cc1 [Compound 54, N-(3,5-Bis-trifluoromethyl-phenyl)-2-[5-(4,6-dimethyl-pyrimidin-2-ylsulfanylmethyl)-4-(4-methoxy-phenyl)-4H-[1,2,4]triazol-3-ylsulfanyl]-acetamide]	5.14 ± 0.04	7 µM	–
COc1ccc(-n2c(CSc3nc(C)cc(C)n3)nnc2SCC(=O)Nc2ccc(Cl)cc2)cc1 [Compound 55, N-(4-Chloro-phenyl)-2-[5-(4,6-dimethyl-pyrimidin-2-ylsulfanylmethyl)-4-(4-methoxy-phenyl)-4H-[1,2,4]triazol-3-ylsulfanyl]-acetamide]	4.65 ± 0.05	22 µM	–
COc1ccc(NC(=O)CSc2nnc(CSc3nc(C)cc(C)n3)n2-c2ccc(OC)cc2)cc1 [Compound 56, 2-[5-(4,6-Dimethyl-pyrimidin-2-ylsulfanylmethyl)-4-(4-methoxy-phenyl)-4H-[1,2,4]triazol-3-ylsulfanyl]-N-(4-methoxy-phenyl)-acetamide]	3.81 ± 0.03	154 µM	–
Cc1ccc(NC(=O)CSc2nnc(C)n2Cc2ccco2)cc1C [Compound 62, N-(3,4-Dimethyl-phenyl)-2-(4-furan-2-ylmethyl-5-methyl-4H-[1,2,4]triazol-3-ylsulfanyl)-acetamide]	–	–	pIC50 ± SE ([2]; Table 3): 2.32 ± 0.48; IC50 ([2]; Table 3): > 1000 µM; inhibitory activity (in words) [2]: complete loss of activity
Cc1ccc(NC(=O)CCSc2nnc(C)n2Cc2ccco2)cc1C [Compound 63, N-(3,4-Dimethyl-phenyl)-3-(4-furan-2-ylmethyl-5-methyl-4H-[1,2,4]triazol-3-ylsulfanyl)-propionamide]	–	–	pIC50 ± SE ([2]; Table 3): 2.95 ± 0.26; IC50 ([2]; Table 3): > 1000 µM; inhibitory activity (in words) [2]: abolished activity
Cc1nnc(SCC(=O)Nc2ccc(C(C)C)cc2)n1Cc1ccco1 [Compound 64, 2-(4-Furan-2-ylmethyl-5-methyl-4H-[1,2,4]triazol-3-ylsulfanyl)-N-(4-isopropyl-phenyl)-acetamide]	–	–	pIC50 ± SE ([2]; Table 3): 4.40 ± 0.03; IC50 ([2]; Table 3): 40 µM; fold loss of activity on truncation of the 4,6-dimethylpyrimidin-2-ylsulfanyl side chain to methyl [2]: 10 fold
C=CCn1c(C)nnc1SCC(=O)Nc1ccc(C(C)C)cc1 [Compound 65, 2-(4-Allyl-5-methyl-4H-[1,2,4]triazol-3-ylsulfanyl)-N-(4-isopropyl-phenyl)-acetamide]	–	–	pIC50 ± SE ([2]; Table 3): 3.86 ± 0.11; IC50 ([2]; Table 3): 138 µM; fold loss of activity on truncation of the 4,6-dimethylpyrimidin-2-ylsulfanyl side chain to methyl [2]: 14 fold
COCCCn1c(C)nnc1SCC(=O)Nc1ccc(C(C)C)cc1 [Compound 66, N-(4-Isopropyl-phenyl)-2-[4-(3-methoxy-propyl)-5-methyl-4H-[1,2,4]triazol-3-ylsulfanyl]-acetamide]	–	–	pIC50 ± SE ([2]; Table 3): 3.79 ± 0.14; IC50 ([2]; Table 3): 164 µM; fold loss of activity on truncation of the 4,6-dimethylpyrimidin-2-ylsulfanyl side chain to methyl [2]: 23 fold
